Key:
cataleptic syndrome = test: Cataleptogenic effects (cataleptic syndrome, method of Wirth et al.); assay type: in vivo, rats, Sprague-Dawley; settings: dose 100 mg/kg ip; cataleptic animals / animals per dose; tested 30 to 300 min after administration
Protocol: The cataleptic syndrome was tested according to the method described by Wirth et al. (Arch. Int. Pharmacodyn. Ther. 115, 1-31, 1958). The animals (male rats, Sprague-Dawley bodyweight 210-225 g; n/dose=4) were regarded as cataleptic if they remained in an abnormal posture for more than 15 sec, i.e. one foreleg an a 9-cm-high piece of cork. The animals were tested 30m 60, 120, 180 and 300 min after intraperitoneal administration of the test compound.

[1] = test system: methamphetamine-induced hyperactivity; test: Methamphetamine antagonism (methamphetamine-induced hyperactivity, measurement of locomotor activity); assay type: in vivo, Mice (NMRI); settings: drug ip 30 min prior to methamphetamine 1 mg/kg po; counts 15 to 60 min after start of measurement
Protocol: Methamphetamine antagonism was tested by recording methamphetamine-induced hyperactivity (measurement of locomotor activity). Mice (NMRI, 21-26 g; female) received drug or vehicle, intraperitoneally, 30 min prior to methamphetamine (MET, 1 mg/kg po). Locomotor activity was recorded in cages equipped with light beams (2 mice/cage/dose) for 1 h, starting 30 min after MET. For calculation of drug effects the counts recorded during the time period of 15 to 60 min after start of the measurement were selected. The control value was calculated as the difference between the counts recorded for the methamphetamine group and the vehicle-treated group during the same time period.

homer mRNA = test: Homer gene expression in brain by in situ hybridization histochemistry; assay type: in vivo, Sprague-Dawley rats; settings: for Homer gene expression induced by treatment with amphetamine: brain frontal cortex, amphetamine plus compound
Protocol: Adult Sprague-Dawley rats (250 g) were maintained in normal environmental conditions with free access to food and water ab libitum. Animals were treated with haloperidol (0.5 and 5 mg/kg) or saline. Naive (non-treated) animals were used as additional controls. Animals were also treated with amphetamine or with amphetamine and MPEP or SIB-1893 as described in example 18b. The animals were sacrificed by decapitation 90 minutes after treatment. Whole brain was rapidly removed from the skull, frozen in dry ice and stored at -30°C. Rat brain sections (15 μm) were obtained at -20°C in a cryostat, mounted in gelatine-coated slides and stored at -30°C until used. Olygonucleotide sequences 40 base length were selected from the homer rat gene sequence published in the GENEBANK (accession number: U92079). Antisense oligonucleotide homerAT ([NT]) was complementary to bases 559 to 599. Antisense oligonucleotide homerBT ([NT]) was complementary to bases 894-934. The corresponding sense oligonucleotides (homerAS and homerBS) were used as control probes. Synthesis was performed in a 395 Applied Biosystems DNA Synthesizer. Purified oligonucleotides were dissolved in DEPC-treated water and stored at -30°C until use. Labelling of synthetic oligoprobes was performed using a deoxynucleotidyl-transferase (TdT) labelling kit (NEP-100, NEN, Bad-Homburg, Germany). Briefly, 5 pmol of probe were incubated (2 hr) with TdT (36 units) in presence of 50 pmol of (^35S] dATP (NEN) and Cl2Co. […] Labelling efficacy was checked by paper chromatography in phosphate buffer system. Homer gene expression in rat brain was studied using in situ hybridization techniques well known in the art. In situ hybridization was performed as previously described (Garcia-Ladona et al., 1994). Briefly, Tissue sections were fixed with paraformaldehyde in PBS and treated (min) with pronase (0.25 mg/l), rapidly washed, dehydrated by consecutive incubation with 60%, 80%, 90% and 100% ethanol, rapidly dried and used for hybridization. […]

Row | Compound | Cataleptogenic effect [x/n] at dose [mg/kg ip] (cataleptic syndrome) | Methamphetamine antagonism ED50 [1] [mg/kg ip] | Homer gene expression induced by treatment with amphetamine (homer mRNA) | homer mRNA transcripts (in situ hybridization images) (homer mRNA; haloperidol 0.5 and 5 mg/kg vs controls, rat brain, 90 minutes after treatment)
1 | Cc1cccc(C=Cc2ccccc2)n1 [BSF 470213, 2-methyl-6-(2-phenylethenyl)-pyridine] | 0/4 at dose 100 | 53.4 | reduced | 
2 | Cc1cccc(C#Cc2ccccc2)n1.Cl [BSF 470214, 2-methyl-8-(phenylethynyl)-pyridine hydrochloride] | 0/4 at dose 100 | 51.2 | reduced | 
3 | O=C(CCCN1CCC(O)(c2ccc(Cl)cc2)CC1)c1ccc(F)cc1 [haloperidol] |  |  |  | higher levels in haloperidol treated animals than in controls
